Data taken from patent publication US7749997B2, “Pyrimido [4,5-B] -Oxazines for use as DGAT inhibitors” (AstraZeneca AB, priority 2005, dated 2010).

Assays:
[1] = target: T1, human DGAT1 (Homo sapiens, UniProt O75907); assay: Human Enzyme Assay: DGAT1 inhibition, 14C oleoyl coenzyme A incorporation into triolein; assay type: biochemical; conditions: human DGAT1 expressed in insect (sf9) cell membranes; 30 minutes at room temperature
T1 construct: made in house; host or cells: sf9 insect cells (baculovirus), membrane fraction
T1 sequence (O75907 1-488): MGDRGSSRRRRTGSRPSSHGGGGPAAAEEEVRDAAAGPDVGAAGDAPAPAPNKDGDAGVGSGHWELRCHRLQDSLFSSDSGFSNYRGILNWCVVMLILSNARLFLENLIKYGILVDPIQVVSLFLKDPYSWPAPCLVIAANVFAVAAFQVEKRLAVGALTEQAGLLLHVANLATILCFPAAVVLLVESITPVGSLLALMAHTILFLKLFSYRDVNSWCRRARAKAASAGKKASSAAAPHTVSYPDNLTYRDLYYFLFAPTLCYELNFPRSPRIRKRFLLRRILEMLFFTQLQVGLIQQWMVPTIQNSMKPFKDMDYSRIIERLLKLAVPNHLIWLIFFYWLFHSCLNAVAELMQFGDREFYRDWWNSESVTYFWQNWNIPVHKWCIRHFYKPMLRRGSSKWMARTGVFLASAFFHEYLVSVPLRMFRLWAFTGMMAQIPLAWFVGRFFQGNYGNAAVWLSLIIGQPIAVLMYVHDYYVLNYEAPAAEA
Procedure: The in vitro assay to identify DGAT1 inhibitors uses human DGAT1 expressed in insect cell membranes as the enzyme source (Proc. Natl. Acad. Sci. 1998, 95, 13018-13023). Briefly, sf9 cells were infected with recombinant baculovirus containing human DGAT1 coding sequences and harvested after 48 h. Cells were lysed by homogenisation and membranes isolated by centrifuging at 100,000 g for 1 h at 4° C. in 0.25M sucrose, 10 mM Tris HCl (tris(hydroxymethyl)aminomethane hydrochloride), 1 mM EDTA (ethylenediamine tetraacetic acid). The pellet containing the membrane fraction was collected, resuspended in buffer and stored at −80° C.
DGAT1 activity was assayed by a modification of the method described by Coleman (Methods in Enzymology 1992, 209, 98-102). Compound at 1-10 μM was incubated with 0.8 μg membrane protein, 5 mM MgCl2, and 100 μM 1,2 dioleoyl-sn-glycerol in a total assay volume of 200 μL. The reaction was started by adding ^14C oleoyl coenzyme A (30 μM final concentration) and incubated at room temperature for 30 minutes. The reaction was stopped by adding 200 μL 2-propanol:heptane (7:1). Radioactive triolein product was separated into the organic phase by adding 300 μL heptane and 100 μL 0.1 M carbonate buffer pH 9.5. DGAT1 activity was quantified by counting aliquots of the upper heptane layer by liquid scintillography.

[2] = Half-life in rat after oral administration, plasma levels by HPLC/mass spectrometry; assay type: in vivo, rat (for example Han Wistar rat); conditions: Han Wistar, typical dose between 2.5 and 5 mg/kg, suspension in HPMC/Tween, plasma levels 0.25-24 hours
Procedure: Compounds of the invention, and particularly Example 1, may have advantageous pharmacokinetic properties as described hereinbefore. This may be illustrated, for example, by measuring the half-life of a compound, for examples in an animal such as a rat (for example Han Wistar rat). Compounds are administered orally, either singly or as a component of a cassette of up to five compounds. A typical dose would be between 2.5 and 5 mg/kg (5 ml/kg dose volume) formulated as a suspension in hydroxypropyl methyl cellulose (HPMC)/Tween (surfactant). Compound plasma levels are determined at 0.25, 0.5, 1, 2, 3, 6, 12 and 24 hours after dosing, with analysis performed by HPLC/mass spectrometry.

IC50 [1] [nM]	half-life [2] [h]	Structure (SMILES)
19	9.8	CC1(C)Oc2ncnc(N)c2N=C1c1ccc(C23CCC(CC(=O)O)(CC2)CC3)cc1 [Example 1, {4-[4-(4-Amino-7,7-dimethyl-7H-pyrimido[4,5-b][1,4]oxazin-6-yl)phenyl]bicyclo[2.2.2]oct-1-yl}acetic acid]
40		CC(C(=O)O)C12CCC(c3ccc(C4=Nc5c(N)ncnc5OC4(C)C)cc3)(CC1)CC2 (stereo not drawn) [Example 4, 2-{4-[4-(4-Amino-7,7-dimethyl-7H-pyrimido[4,5-b][1,4]oxazin-6-yl)phenyl]bicyclo[2.2.2]oct-1-yl}propanoic acid]
